Source: patent US6426356B1, “Imidazoethyl thiophenes” (Ortho-McNeil Pharmaceutical, Inc., priority 1998, dated 2002)
Read-outs that look alike come from different tables or passages of the source.

Experiments:
[1] = molecular target: T1, Alpha-2D Adrenergic Receptor (Rattus norvegicus, UniProt P22909); test: Alpha-2D adrenergic receptor binding assay (3H-para-aminoclonidine, rat cortex synaptic membranes)
T1 construct: aliquots of the synaptic membrane fraction, the ligand ^3H-para-aminoclonidine and test drug; from tissue; host or cells: rat brain cortex synaptic membrane fraction (male Wistar rats)
T1 sequence (P22909 1-465): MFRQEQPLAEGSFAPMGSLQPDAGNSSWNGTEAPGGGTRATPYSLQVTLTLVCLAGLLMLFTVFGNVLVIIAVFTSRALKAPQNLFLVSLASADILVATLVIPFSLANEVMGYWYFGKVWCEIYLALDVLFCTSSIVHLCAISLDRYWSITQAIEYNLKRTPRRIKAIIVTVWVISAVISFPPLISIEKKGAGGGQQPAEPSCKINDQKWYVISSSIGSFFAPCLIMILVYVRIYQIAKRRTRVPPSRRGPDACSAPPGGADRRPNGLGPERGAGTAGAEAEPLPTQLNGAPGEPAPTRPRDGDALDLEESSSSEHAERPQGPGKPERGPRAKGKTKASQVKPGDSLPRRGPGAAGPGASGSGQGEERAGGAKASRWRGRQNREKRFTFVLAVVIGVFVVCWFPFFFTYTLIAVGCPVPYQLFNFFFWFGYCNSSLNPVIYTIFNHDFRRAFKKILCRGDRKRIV
Protocol: Alpha-2D Adrenergic Receptor Binding Assay
Male, Wistar rats (150-250 g, VAF, Charles River, Kingston, N.Y.) are sacrificed by cervical dislocation and their brains removed and placed immediately in ice cold HEPES buffered sucrose. The cortex is dissected out and homogenized in 20 volumes of HEPES sucrose in a Teflon™-glass homogenizer. The homogenate is centrifuged at 1000 g for 10 min, and the resulting supernatant centrifuged at 42,000 g for 10 min. The resulting pellet is resuspended in 30 volumes of 3 mM potassium phosphate buffer, pH 7.5, preincubated at 25 ° C. for 30 min and recentrifuged. The resulting pellet is resuspended as described above and used for the receptor binding assay. […] The incubation is terminated by filtration of the tube contents through glass fiber filter sheets. Following washing of the sheets with 10 mM HEPES buffer, the adhering radioactivity is quantified by liquid scintillation spectrometry.
Binding of the test drug to the receptor is determined by comparing the amount of radiolabeled ligand bound in control tubes without drug to the amount of radiolabeled ligand bound in the presence of the drug. Dose-response data are analyzed with LIGAND, a nonlinear curve fitting program designed specifically for the analysis of ligand binding data.

[2] = tested on: mouse acetylcholine bromide-induced abdominal constriction; test: Mouse acetylcholine bromide-induced abdominal constriction assay (MAIT); format: in vivo; details: po; % inhibition of abdominal constriction; dose not given
Protocol: Mouse Acetylcholine Bromide-Induced Abdominal Constriction Assay (MAIT)
The mouse acetylcholine bromide-induced abdominal constriction assay, as described by Collier et al. in Brit. […] The test drugs or appropriate vehicle were administered orally (p.o.) and 30 minutes later the animal received an intraperitoneal (i.p.) injection of 5.5 mg/kg acetylcholine bromide (Matheson, Coleman and Bell, East Rutherford, N.J.). The mice were then placed in groups of three into glass bell jars and observed for a ten minute observation period for the occurrence of an abdominal constriction response (defined as a wave of constriction and elongation passing caudally along the abdominal wall, accompanied by a twisting of the trunk and followed by extension of the hind limbs). The percent inhibition of this response to a nociceptive stimulus (equated to % analgesia) was calculated as follows: The % Inhibition of response, i.e., % analgesia is equal to the difference between the number of control animals responding and the number of drug-treated animals responding times 100 divided by the number of control animals responding.
At least 15 animals were used for control and in each of the drug treated groups.

[3] = tested on: mouse acetylcholine bromide-induced abdominal constriction; test: as above; format: in vivo; details: sc; % inhibition of abdominal constriction; dose not given
[4] = 3H-para-aminoclonidine, rat cortex membranes, read-out: α2D Ki

| SMILES | Ki [1] [nM] | MAIT [2] [po] | MAIT [3] [sc] | Ki [1, 4] [nM] |
| --- | --- | --- | --- | --- |
| c1nc(CCc2ccsc2)c[nH]1 [Cp-3] | 0.53 | 53 | – | – |
| Cc1ccc(CCc2c[nH]cn2)s1 [Cp-4] | 1.1 | 7 | – | – |
| c1csc(CCc2c[nH]cn2)c1 [Cp-2] | 0.1 | 60 | – | – |
| Brc1csc(C=Cc2c[nH]cn2)c1 [Cp-16] | 31 | 20 | – | – |
| Cc1ccsc1/C=C/c1c[nH]cn1 [Cp-13] | 3.2 | – | – | – |
| CCc1ccc(CCc2c[nH]cn2)s1 [Cp-6] | 1.2 | 20 | – | – |
| Clc1ccc(/C=C/c2c[nH]cn2)s1 [Cp-14] | 17 | 20 | – | – |
| CCc1csc(C=Cc2c[nH]cn2)c1 [Cp-18] | 26 | – | 53 | – |
| CCc1ccc(/C=C/c2c[nH]cn2)s1 [Cp-17] | 22 | – | 13 | – |
| Cc1ccc(/C=C/c2c[nH]cn2)s1 [Cp-12] | 22 | 7 | – | – |
| CCc1sccc1CCc1c[nH]cn1 [Cp-5] | – | 67 | – | 1.8 |
| Cc1ccsc1CCc1c[nH]cn1 [Cp-1] | – | 93 | – | 0.075 |
| CCc1csc(CCc2c[nH]cn2)c1 [Cp-8] | 0.15 | 20 | – | – |
